Our source for the IC50 values is patent publication US12319689B2, “Methyl- and trifluoromethyl-containing disubstituted sulfonamide selective BCL-2 inhibitor” (CHIA TAI TIANQING PHARMACEUTICAL GROUP CO., LTD., priority 2019, dated 2025).

The target of one experiment is T1, BCL-2/BAK (Homo sapiens, UniProt P10415).
T1 construct: purchased Cisbio 63ADK000CB01PEG
Put plainly: Inhibitory activity for BCL-2/BAK binding (Cisbio BCL-2/BAK (BH3) binding assay kit). The procedure: 500 nM Tag1-BCL-2 protein stock solution and 20 μM Tag2-BAK protein stock solution were diluted to 5 nM and 120 nM respectively with dilution buffer in kit (name: BCL-2/BAK (BH3) BINDING ASSAY KITS, cat. No.: 63ADK000CB01PEG, from Cisbio). 5 μL of Tag1-BCL-2 protein diluent was added to each well, then test compounds dissolved with DMSO were added to the wells with a nanoliter pipettor, allowing the final compound concentrations to be 200 nM to 0.0488 nM (4-fold gradient for 7 concentrations in total). Blank control wells (without enzyme) and negative control wells (with enzyme, plus vehicle DMSO) were set, and 2 replicate wells were set. Finally, 5 μL of Tag2-BAK protein diluent was added to each well, and the mixture was mixed well by centrifugation and incubated at 25° C. for 15 min. 100× anti-Tag1-Eu^3+ and 100× anti-Tag2-XL665 were both diluted to 1× working concentration with the detection buffer in the kit. Anti-Tag1-Eu^3+ and anti-Tag2-XL665 were mixed well in a 1:1 ratio, and the mixture was added to wells at 5 μL/well, and incubated at 25° C. for 2 h or more. The plate was read using a PE Envision multi-functional microplate reader ([…], emission: 665 nm) and IC50 (shown in Table 2) was calculated by four-parameter fitting.

In a further experiment the target is T2, BCL-XL/BAK (Homo sapiens, UniProt Q07817).
T2 construct: purchased Cisbio 63ADK000CB04PEG
T2 sequence (Q07817 whole entry): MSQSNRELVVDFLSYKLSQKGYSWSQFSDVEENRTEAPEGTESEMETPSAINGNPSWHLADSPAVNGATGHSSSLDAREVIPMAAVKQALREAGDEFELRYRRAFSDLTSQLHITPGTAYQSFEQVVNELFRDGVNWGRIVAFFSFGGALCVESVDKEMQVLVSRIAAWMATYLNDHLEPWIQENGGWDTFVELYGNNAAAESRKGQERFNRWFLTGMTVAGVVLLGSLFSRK
Put plainly: Inhibitory activity for BCL-XL/BAK binding (Cisbio BCL-XL/BAK (BH3) binding assay kit). The procedure: 300 nM Tag1-BCL-XL protein stock solution and 10 μM Tag2-BAK protein stock solution were diluted to 2 nM and 80 nM respectively with dilution buffer in kit (name: BCL-XL/BAK (BH3) BINDING ASSAY KITS, cat. No.: 63ADK000CB04PEG, from Cisbio). 5 μL of Tag1-BCL-XL protein diluent was added to each well, then different test compounds dissolved with DMSO were added to the wells with a nanoliter pipettor, allowing the final compound concentrations to be 2000 nM to 0.488 nM (4-fold gradient for 7 concentrations in total). Blank control wells (without enzyme) and negative control wells (with enzyme, plus vehicle DMSO) were set, and 2 replicate wells were set. Finally, 5 μL of Tag2-BAK protein diluent was added to each well, and the mixture was mixed well by centrifugation and incubated at 25° C. for 15 min. 100× anti-Tag1-Eu^3+ and 100× anti-Tag2-XL665 were both diluted to 1× working concentration with the detection buffer in the kit. Anti-Tag1-Eu^3+ and anti-Tag2-XL665 were mixed well in a 1:1 ratio, and the mixture was added to wells at 5 μL/well, and incubated at 25° C. for 2 h or more. The plate was read using a PE Envision multi-functional microplate reader ([…], emission: 665 nm) and IC50 (shown in Table 2) was calculated by four-parameter fitting.

The test system of the next experiment is RS4;11 cells. The experiment can be described thus: Inhibition of proliferation of RS4;11 human acute lymphocytic leukemia cells (CCK-8). Conditions: 72 h compound exposure, CCK-8, 5% serum. In kind it is cell-based. The method, then:
RS4;11 cells (from ATCC) in logarithmic growth phase and good cell condition were added to a centrifuge tube and centrifuged at 1500 rpm for 3 min in a low speed centrifuge. The supernatant was discarded, and 5 mL of complete medium (RPMI basic medium+10% FBS) was added using a pipette for cell resuspension. The cells were counted using a cell counter, diluted with complete medium to a cell density of 2×10^5 cells/mL, and an equivalent amount of RPMI basic medium was added to adjust the serum concentration to 5% and the cell density to 1×10^5 cells/mL for plate seeding. The cells were seeded on a 96-well plate at 100 μL/well using a pipettor, and incubated in an incubator at 37° C., 5% CO2 with saturated humidity. After 24 h of incubation, compounds were loaded using a nanoliter pipettor, 2 duplicate wells were set for each concentration, and cells without compound were used as negative controls. […] Inhibition rate (%)=(mean value of negative control group−mean value of experimental group)/(mean value of negative control group−mean value of blank group)×100%. A dose-response curve was fitted by four-parameter analysis, with the logarithm of compound concentration serving as abscissa and inhibition rate serving as ordinate, so that IC50 was calculated (Table 1).

T1 sequence (P10415 whole entry): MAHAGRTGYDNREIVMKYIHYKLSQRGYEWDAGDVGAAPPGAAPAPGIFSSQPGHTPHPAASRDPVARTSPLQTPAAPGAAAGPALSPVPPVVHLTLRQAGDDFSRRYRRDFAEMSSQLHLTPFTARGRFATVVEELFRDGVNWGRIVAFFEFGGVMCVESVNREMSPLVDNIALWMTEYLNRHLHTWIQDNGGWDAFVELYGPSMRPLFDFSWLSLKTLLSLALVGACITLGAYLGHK

Take `Cc1cc(C(F)(F)F)ccc1C1=C(CN2CCN(c3ccc(C(=O)NS(=O)(=O)c4ccc(NC[C@@H]5CCOC5)c([N+](=O)[O-])c4)c(Oc4cnc5[nH]ccc5c4)c3)CC2)CCC(C)(C)C1` [Compound 10-1, (S)-4-(4-{[2-(2-methyl-4-trifluoromethylphenyl)-4,4-dimethylcyclohex-1-enyl]methyl}-piperazin-1-yl)-N-({3-nitro-4-[((tetrahydrofuran-3-yl)methyl)amino]phenyl}sulfonyl)-2-(1H-pyrrolo[2,3-b]pyridin-5-yloxy)-benzamide]: the half-inhibitory concentration (IC50) turned out to be 1.1 nM at BCL-2/BAK and 102 nM at BCL-XL/BAK.
Regarding `Cc1cc(C(F)(F)F)ccc1C1=C(CN2CCN(c3ccc(C(=O)NS(=O)(=O)c4ccc(NC[C@H]5CCCOC5)c([N+](=O)[O-])c4)c(Oc4cnc5[nH]ccc5c4)c3)CC2)CCC(C)(C)C1` [Compound 15-1, (R)-4-(4-{[2-(2-methyl-4-trifluoromethylphenyl)-4,4-dimethylcyclohex-1-enyl]methyl}-piperazin-1-yl)-N-({3-nitro-4-[((tetrahydropyran-3-yl)methyl)amino]phenyl}sulfonyl)-2-(1H-pyrrolo[2,3-b]pyridin-5-yloxy)-benzamide], the IC50 stood at 1.53 nM on BCL-2/BAK and 261 nM on BCL-XL/BAK.
As for `Cc1cc(C(F)(F)F)ccc1C1=C(CN2CCN(c3ccc(C(=O)NS(=O)(=O)c4ccc(NC[C@@H]5CCCOC5)c([N+](=O)[O-])c4)c(Oc4cnc5[nH]ccc5c4)c3)CC2)CCC(C)(C)C1` [Compound 16-1, (S)-4-(4-{[2-(2-methyl-4-trifluoromethylphenyl)-4,4-dimethylcyclohex-1-enyl]methyl}-piperazin-1-yl)-N-({3-nitro-4-[((tetrahydropyran-3-yl)methyl)amino]phenyl}sulfonyl)-2-(1H-pyrrolo[2,3-b]pyridin-5-yloxy)-benzamide], the IC50 on BCL-2/BAK is 2.07 nM; on BCL-XL/BAK, 144 nM.
For the compound `Cc1cc(C(F)(F)F)ccc1C1=C(CN2CCN(c3ccc(C(=O)NS(=O)(=O)c4ccc(NC[C@@H]5CN(C(=O)C(C)C)CCO5)c([N+](=O)[O-])c4)c(Oc4cnc5[nH]ccc5c4)c3)CC2)CCC(C)(C)C1` [Compound 21-1, (R)-4-(4-{[2-(2-methyl-4-trifluoromethylphenyl)-4,4-dimethylcyclohex-1-enyl]methyl}-piperazin-1-yl)-N-({3-nitro-4-[((4-isobutyrylmorpholin-2-yl)methyl)amino]phenyl}sulfonyl)-2-(1H-pyrrolo[2,3-b]pyridin-5-yloxy)-benzamide], the IC50 was found to be 5.5 nM with RS4;11 cells, 0.72 nM on BCL-2/BAK and 115 nM at BCL-XL/BAK.
As for `Cc1cc(C(F)(F)F)ccc1C1=C(CN2CCN(c3ccc(C(=O)NS(=O)(=O)c4ccc(NC[C@H]5CN(S(C)(=O)=O)CCO5)c([N+](=O)[O-])c4)c(Oc4cnc5[nH]ccc5c4)c3)CC2)CCC(C)(C)C1` [Compound 22-1, (S)-4-(4-{[2-(2-methyl-4-trifluoromethylphenyl)-4,4-dimethylcyclohex-1-enyl]methyl}-piperazin-1-yl)-N-({3-nitro-4-[((4-(methylsulfonyl)morpholin-2-yl)methyl)amino]phenyl}sulfonyl)-2-(1H-pyrrolo[2,3-b]pyridin-5-yloxy)-benzamide], the half-maximal inhibitory concentration (IC50) turned out to be 2.2 nM in the experiment on RS4;11 cells, 1.31 nM at BCL-2/BAK and 105 nM at BCL-XL/BAK.

By IC50 is commonly meant the concentration that gives 50% inhibition. Read a high IC50 as weaker potency in that assay.
